Patent US7709645B2, “Pyrrolo-pyridine kinase modulators” (SGX Pharmaceuticals, Inc., priority 2004, dated 2010)

Target: T1, MET kinase (Homo sapiens, UniProt P08581)
T1 construct: Sf9 insect cell culture expressing the kinase domain of human Met; 6x Histidine tag (TEV-cleavable) (cleaved yes); made in house; host or cells: Sf9 insect cells
Test: Met Bioassay (luminescence-based enzyme assay, Kinase-Glo)
Assay type: biochemical
Conditions: 10 μM ATP
From the text: In addition to the c-Abl PK/LDH coupled assay (above), homogeneous luminescence-based inhibitor screening assays were developed for c-Abl, MET, AurA, and PDK1 kinases (among others). Each of these assays made use of an ATP depletion assay (Kinase-Glo™, Promega Corporation, Madison, Wis.) to quantitate kinase activity. The Kinase-Glo™ format uses a thermostable luciferase to generate luminescent signal from ATP remaining in solution following the kinase reaction. The luminescent signal is inversely correlated with the amount of kinase activity.
Materials: Poly Glu-Tyr (4:1) substrate (Sigma Cat# P-0275), ATP (Sigma Cat#A-3377, FW=551), HEPES buffer, pH 7.5, Bovine serum albumin (BSA) (Roche 92423420), MgCl2, Staurosporine (Streptomyces sp. Sigma Cat#85660-1MG), white Costar 384-well flat-bottom plate (VWR Cat#29444-088). MET kinase (see below), Kinase-Glo™ (Promega Cat#V6712).
Stock Solutions: 10 mg/ml poly Glu-Tyr in water, stored at −20° C.; 100 mM HEPES buffer, pH 7.5 (5 ml 1M stock+45 ml miliQH2O); 10 mM ATP (5.51 mg/ml in dH2O) stored at −20° C. (diluted 50 μl into total of 10 ml miliQH2O daily=50 μM ATP working stock); 1% BSA (1 g BSA in 100 ml 0.1M HEPES, pH 7.5, stored at −20° C.), 100 mM MgCl2; 200 μM Staurosporine, 2× Kinase-Glo™ reagent (made fresh or stored at −20° C.).
Standard Assay Setup for 384-well format (20 μl kinase reaction, 40 μl detection reaction): 10 mM MgCl2; 0.3 mg/ml poly Glu-Tyr; 0.1% BSA; 1 μl test compound (in DMSO); 0.4 μg/ml MET kinase; 10 μM ATP; 100 mM HEPES buffer. Positive controls contained DMSO with no test compound. Negative controls contained 10 μM staurosporine. The kinase reactions were initiated at time t=0 by the addition of ATP. Kinase reactions were incubated at 21° C. for 60 min, then 20 μl of Kinase-Glo™ reagent were added to each well to quench the kinase reaction and initiate the luminescence reaction. After a 20 min incubation at 21° C., the luminescence was detected in a plate-reading luminometer.
The cell pellets produced from half of a 12 L Sf9 insect cell culture expressing the kinase domain of human Met were resuspended in a buffer containing 50 mM Tris-HCl pH 7.7 and 250 mM NaCl, in a volume of approximately 40 ml per 1 L of original culture. One tablet of Roche Complete, EDTA-free protease inhibitor cocktail (Cat# 1873580) was added per 1 L of original culture. The suspension was stirred for 1 hour at 4° C. Debris was removed by centrifugation for 30 minutes at 39,800×g at 4° C. The supernatant was decanted into a 500 ml beaker and 10 ml of 50% slurry of Qiagen Ni-NTA Agarose (Cat# 30250) that had been pre-equilibrated in 50 mM Tris-HCl pH 7.8, 50 mM NaCl, 10% Glycerol, 10 mM Imidazole, and 10 mM Methionine, were added and stirred for 30 minutes at 4° C. The sample was then poured into a drip column at 4° C. and washed with 10 column volumes of 50 mM Tris-HCl pH 7.8, 500 mM NaCl, 10% Glycerol, 10 mM Imidazole, and 10 mM Methionine. The protein was eluted using a step gradient with two column volumes each of the same buffer containing 50 mM, 200 mM, and 500 mM Imidazole, sequentially. The 6× Histidine tag was cleaved overnight using 40 units of TEV protease (Invitrogen Cat#10127017) per 1 mg of protein while dialyzing in 50 mM Tris-HCl pH 7.8, 500 mM NaCl, 10% Glycerol, 10 mM Imidazole, and 10 mM Methionine at 4° C. The 6× Histidine tag was removed by passing the sample over a Pharmacia 5 ml IMAC column (Cat# 17-0409-01) charged with Nickel and equilibrated in 50 mM Tris-HCl pH 7.8, 500 mM NaCl, 10% Glycerol, 10 mM Imidazole, and 10 mM Methionine. The cleaved protein bound to the Nickel column at a low affinity and was eluted with a step gradient. The step gradient was run with 15% and then 80% of the B-side (A-side=50 mM Tris-HCl pH 7.8, 500 mM NaCl, 10% Glycerol, 10 mM Imidazole, and 10 mM Methionine; B-side=50 mM Tris-HCl pH 7.8, 500 mM NaCl, 10% Glycerol, 500 mM Imidazole, and 10 mM Methionine) for 4 column volumes each. […]

T1 sequence (P08581 1078-1345 limits assumed): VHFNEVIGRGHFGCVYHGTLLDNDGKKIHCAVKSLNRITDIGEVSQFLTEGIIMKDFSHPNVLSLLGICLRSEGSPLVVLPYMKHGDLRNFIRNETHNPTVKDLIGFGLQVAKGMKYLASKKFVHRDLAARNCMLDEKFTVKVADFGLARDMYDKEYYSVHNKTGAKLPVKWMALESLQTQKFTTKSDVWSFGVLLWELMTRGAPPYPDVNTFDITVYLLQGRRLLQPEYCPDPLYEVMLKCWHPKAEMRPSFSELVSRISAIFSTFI

| IC50 | SMILES |
| --- | --- |
| < 1000 nM | COc1ccccc1-c1c[nH]c2ncc(-c3ccc(CN(C)C)cc3)cc12 [AE8] |
| < 1000 nM | O=C(c1cncc(-c2cnc3[nH]cc(-c4ccc5cc[nH]c5c4)c3c2)c1)N1CCOCC1 [AE14] |
| 1000 to 5000 nM | c1cc2cc(-c3c[nH]c4ncc(-c5ccc6[nH]cnc6c5)cc34)ccc2[nH]1 [AE22] |
| 1000 to 5000 nM | COc1ccccc1-c1c[nH]c2ncc(-c3ccc(O)c(CN4CCCN(C)CC4)c3)cc12 [AE41] |
| < 1000 nM | COc1ccccc1-c1c[nH]c2ncc(-c3cccc(C(=N)N4CCCCC4)c3)cc12 [AE42] |
| < 1000 nM | Oc1cccc(-c2cnc3[nH]cc(-c4ccc(O)c(F)c4)c3c2)c1 [AE48] |
| 1000 to 5000 nM | COc1cc(-c2cnc3[nH]cc(-c4ccc(O)cc4)c3c2)ccc1O [AE58] |
| 1000 to 5000 nM | COc1cc(-c2cnc3[nH]cc(-c4ccccc4OC)c3c2)ccc1OCCN1CCCC1 [AE65] |
